From patent publication US12319681B2, “Tripartite androgen receptor eliminators, methods and uses thereof” (SPG Therapeutics, Inc., priority 2017, dated 2025)

How the values were obtained:
androgen receptor (AR) = androgen receptor (AR) (Homo sapiens, UniProt P10275); assay: MDA-kb2 AR luciferase reporter gene assay (1.0 nM DHT); assay type: cell-based; settings: MDA-kb2, 24 h, read-out: Gene Activity Reduction
Procedure: This example illustrates how to determine the inhibitory activity of an ARE disclosed herein using a cell-based androgen receptor transcriptional reporter assay using an engineered cell line.
Each ARE tested was prepared in DMSO. […] Ethanol concentrations in media never exceeded 0.1%.
To assess ARE-mediated inhibition, an AR luciferase assay was performed. After washing cells with 1×PBS, 20 μL lysis buffer (25 mM Tris/phosphate, 4 mM EGTA, 1% Triton, 10% glycerol, 2 mM DTT) was added per well, incubated for 5 minutes with gentle shaking and store at −80° C. On the day of assay, the plates were thawed to ambient temperature and 80 μL of assay buffer (25 mM glycylglycine, 15 mM MgCl2. 5 mM ATP, 0.1 mg/ml BSA) was added to each well. Plates are then processed on a microplate reader (POLARstar Omega) by injecting 100 μL of 1 mM D-luciferin per well, followed by chemiluminescence measurement of 3 seconds at onset of injection. Luciferase activity was determined, measured, and normalized to Relative Light Units (RLU). AR reporter gene activity reduction values were calculated as follows: AR reporter gene activity=1−(average signal (treatment group)/average signal (treatment group without drug).

[1] = Human Skin Penetration Assays (Franz-cell, HTS station); assay type: in vitro ADME; settings: 8 hours of exposure
Procedure: To examine the penetration ability of SPG-003 formulation, two different assays were conducted. The SPG-003 formulation was prepared by adding SPG-003 (final concentration 1.0% by weight) to a mixture comprising 30% denatured alcohol. 49% IPM, 20% Transcutol and sonicaing this mixture until the compound was dissolved.
Human cadaver skin tissue was purchased from a tissue bank in the U.S. Two lots of the dermatomed skin tissue were used. Donor demographics: tissue 08033 (average thickness: 397 μm): […], […], […], and anatomical site=abdomen; tissue 08696 (average thickness; 1,040 μm): […], […], […], and anatomical site=abdomen. The thickness was measured using a digital snap gage. Duplicate for each donor (N=2). The tissue was received in dry ice packaging. It was stored at −20° C. until use.
After passing initial visual inspection, barrier integrity of the skin tissue was evaluated using transepidermal electrical resistance measurement (TEER measurement). […] Prior to the skin absorption and penetration study, electrical resistance value for each lot of human skin tissue was evaluated. […] Transepidermal electrical resistance value (TEER measurement, Z value) was measured. […] It was determined that the threshold TEER value was 6.0 KOhms for donor 08033 and 10 KOhms for donor 08696. […]
The data collection time point was 8 hours. […] The extracts were collected and ready for analysis. […]

human keratinocytes = assay: Keratinocyte cell viability / cytotoxicity in Example 12; assay type: cell-based; settings: extended treatment

Chain of androgen receptor (AR) (P10275 whole entry): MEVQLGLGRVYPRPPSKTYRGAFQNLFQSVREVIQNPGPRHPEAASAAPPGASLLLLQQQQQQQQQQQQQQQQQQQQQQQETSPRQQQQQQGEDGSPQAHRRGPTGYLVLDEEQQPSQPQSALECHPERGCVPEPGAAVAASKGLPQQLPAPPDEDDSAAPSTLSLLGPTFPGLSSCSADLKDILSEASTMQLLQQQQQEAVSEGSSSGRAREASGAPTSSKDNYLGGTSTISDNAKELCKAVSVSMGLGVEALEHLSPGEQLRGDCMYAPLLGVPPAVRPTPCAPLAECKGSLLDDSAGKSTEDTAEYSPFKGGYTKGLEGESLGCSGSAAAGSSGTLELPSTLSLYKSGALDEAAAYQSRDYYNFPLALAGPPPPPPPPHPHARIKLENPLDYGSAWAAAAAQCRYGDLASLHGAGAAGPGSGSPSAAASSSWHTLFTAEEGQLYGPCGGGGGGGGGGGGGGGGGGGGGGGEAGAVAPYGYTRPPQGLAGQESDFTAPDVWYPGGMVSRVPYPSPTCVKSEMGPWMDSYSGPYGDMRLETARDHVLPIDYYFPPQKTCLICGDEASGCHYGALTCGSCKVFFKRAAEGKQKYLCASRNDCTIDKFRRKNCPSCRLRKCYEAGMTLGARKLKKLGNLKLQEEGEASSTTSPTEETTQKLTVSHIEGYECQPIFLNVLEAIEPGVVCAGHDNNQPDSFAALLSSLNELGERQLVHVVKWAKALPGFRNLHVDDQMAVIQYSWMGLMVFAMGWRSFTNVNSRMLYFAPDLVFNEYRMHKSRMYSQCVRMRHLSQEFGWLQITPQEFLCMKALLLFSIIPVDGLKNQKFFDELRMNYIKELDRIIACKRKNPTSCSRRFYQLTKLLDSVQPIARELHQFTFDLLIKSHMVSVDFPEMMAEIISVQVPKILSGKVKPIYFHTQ

## CC12CCC(=O)C=C1C[C@@H](SC(=O)CC13CC4CC(CC(C4)C1)C3)C1C2CCC2(C)C1CC[C@@]21CCC(=O)O1 (stereo partly shown) [SPG-003]
Androgen receptor (AR)
  inhibition at 0.1 µM: 8%
  inhibition at 1 µM: 20%
  inhibition at 3 µM: 40%
  inhibition at 10 µM: 90%
[1]
  skin penetration (in words): limited amount
  skin retention in epidermis and dermis (in words): good amount
Human keratinocytes
  cell cytotoxicity (in words): minimal
